Legend:
[1] = test system: extracellular acetylcholine in the cerebral cortex; assay: Amount of extracellular acetylcholine in mouse brain by in vivo microdialysis (Test Example 1); parameters: species or system ddY mouse; conditions: for amount of extracellular acetylcholine in the cerebral cortex (ratio to basic released amount): oral 30 mg/kg, measured for 120 minutes after administration, compared with before administration, FIG. 1
Experimental: The compound A, B, and C were administered orally to the mouse and the effect on the amount of extracellular acetylcholine in the brain was examined. The brain microdyalysis method using the mouse is proposed as a test for evaluating cognitive dysfunction including Alzheimer type dementia. The brain microdyalysis method is a system that can monitor the variation of extracellular neurotransmitter release in real time at the local parts in the brain while the test animals are moving freely without anesthesia.
(§1) 7-weeks-old male ddY mice were purchased from Japan SLC, Inc. and subjected to the experiment after one week habituation period. The animals were reared in the rearing chamber provided with air conditioner (under the condition that the temperature was 22° C.±1° C., the relative humidity was 50±10%, and the irradiation time was 12 hours (8:00 to 20:00)). The feeding method was that the commercially available MF powdery feed (manufactured by Oriental Yeast Co., ltd.) and tap water were taken freely.
In the two days before the start of the experiment, the fixing operation of the guide cannula for inserting the dialysis probe in the mouse was conducted in advance. Under the deep anesthetized conditions, the guide cannula (depth 4 mm) (manufactured by Eicom Corp.,) was inserted in and fixed on cerebral cortex prefrontal area (which was 1.9 mm forward and 0.5 mm right side from the bregma and to which the depth from cranial surface was 0.8 mm). Buprenorphine (0.01 mg/kg manufactured by Sigma-Aldrich Japan) was administered to the mouse as analgesic after the operation. Each mouse was reared in the separate cage after the operation.
In the step of measuring extracellular acetylcholine in the brain, the dialysis probe (membrane length 3 mm) (manufactured by Eicom Corp.,) was inserted in the guide cannula and the Ringer's solution in the Japanese Pharmacopeia (containing NaCl (147.2 mM), KCl (4.0 mM), and CaCl2 (2.2 mM); manufactured by FUSO CHEMICAL CO., LTD.) was perfused at the flow velocity of 1 μL/min. The sample obtained by the perfusion was collected every 20 minutes and was immediately continuously automatically injected in the high-speed liquid chromatography/electrochemical detector (HPLC/ECD) system (manufactured by Eicom Corp., HTEC-500) together with the internal standard material (isopropylhomocholine, 250 fmol) and acetylcholine was measured under the condition described below.
• Column: Eicompak AC-GEL (2.0 mm; i.d.×150 mm) (manufactured by Eicom Corp.,) • Precolumn: PC-05-03 (3.0 mm; i.d.×40 mm) (manufactured by Eicom Corp.,) • Enzyme-immobilized column: AC-Enzympak (3.0 mm; i.d.) (manufactured by Eicom Corp.,) • Mobile Phase: 50 mM potassium hydrogen carbonate buffer containing 400 mg/L sodium decansulfonic acid and 134 μM EDTA (pH 8.3) • Flow Velocity: 150 μl/min. • Temperature of column: 33° C. • Applied voltage of ECD: +450 mV • Reference electrode: Ag/AgCl electrode • Work electrode: platinum electrode
The compound A prepared according to the procedure described in Manufacturing Example 1 was dissolved in 2.5% DMSO solution in advance to prepare for the test. […] The amount of the extracellular acetylcholine released was measured by the procedure described above in (a) Used animal and Rearing Procedure in real time for 120 minutes after the administration. The mouse in Vehicle group took only 2.5% DMSO solution orally in the same way and the amount of the extracellular acetylcholine was measured. […]

acetylcholine esterase = acetylcholine esterase (Homo sapiens, UniProt P22303); assay: Inhibiting action of acetylcholine esterase (data not described); format: biochemical
[2] = test system: cranial nerve cell SH-SY5Y; conditions: SH-SY5Y in vitro; cited from earlier work
[3] = mouse, oral administration; cited from earlier work
[4] = test system: scopolamine-induced amnesia mouse; assay: Y-maze test, short-term working memory of scopolamine-induced amnesia mouse (Test Example 2); format: in vivo, ddY mouse; conditions: oral 30 mg/kg, scopolamine 1 mg/kg i.p.; FIG. 2(A),(B)
Experimental: The effect of inhibiting lowering of short-term memory was examined by orally or subcutaneously (intraperitoneally) administering the compound A to the mouse.
as §1
The compound A prepared according to the procedure described in Manufacturing Example 1 was dissolved in 2.5% DMSO solution in advance. There were 15 mice in each group, and the 30 mg/kg compound administration group and the 10 mg/kg compound administration group were established and orally administered. The mice of the control group and Vehicle group were orally administered with only 2.5% DMSO solution. In the same manner the compound B and the compound C were orally administered to 10 mice at a dose of 30 mg/kg respectively. Each mouse of the administration groups of the compound A to C and the vehicle group was intraperitoneally administered with scopolamine hydrobromide (manufactured by Sigma-Aldrich Japan S1875) (a dose of 1 mg/kg) which is muscarinic acetylcholine receptor antagonist 30 minutes after the administration. The mice of the control group which were not administered with scopolamine hydrobromide were intraperitoneally administered with (Japanese Pharmacopoeia) physiological saline solution (OTSUKA NORMAL SALINE 3311401A2026). At 30 minutes after the final administration, Y-maze test was conducted, and the working memory was evaluated. The test using the mice orally administered was separately conducted under the same condition as that described above for comparative evaluation of the intraperitoneal administration.
The Y-maze manufactured by Brain Science. idea Co., Ltd. was used for the test. The maze was the maze 3 courses of which were made into Y-letter shape having one selection point and arranged at interval of an angle of 120 degree. […] The mouse put on the gray course (made of polyvinyl chloride) was kept in the conditions and the mouse can see nothing but the upper part. Any one of the 3 courses of the maze was set as a starting point. After placing the mouse quietly at the starting point, the number of the times the mouse entered each course was record per 8 minutes, and as well as which course and in what order the mouse entered it. The ratio of the number of three consecutive entries into different courses (the number of the alternation behavior) to the total number of the selections was calculated as Spontaneous Alternation (%) according to the following formula and was used as an index of the short-term working memory.
From the results obtained, the mean (Mean) and the standard error (SEM) were calculated. The significant difference between the control group and the Vehicle group and between the compound A administration group and the Vehicle group was assessed by Turkey-Kramer's test. The level of significance was set to *P<0.05 and **p<0.01.

[5] = test system: cytotoxicity induced by β-oligomer; conditions: cited from earlier work
[6] = cited from earlier work
amyloid β = conditions: mouse model of the Alzheimer's disease; cited from earlier work

Sequence of acetylcholine esterase (P22303 32-614): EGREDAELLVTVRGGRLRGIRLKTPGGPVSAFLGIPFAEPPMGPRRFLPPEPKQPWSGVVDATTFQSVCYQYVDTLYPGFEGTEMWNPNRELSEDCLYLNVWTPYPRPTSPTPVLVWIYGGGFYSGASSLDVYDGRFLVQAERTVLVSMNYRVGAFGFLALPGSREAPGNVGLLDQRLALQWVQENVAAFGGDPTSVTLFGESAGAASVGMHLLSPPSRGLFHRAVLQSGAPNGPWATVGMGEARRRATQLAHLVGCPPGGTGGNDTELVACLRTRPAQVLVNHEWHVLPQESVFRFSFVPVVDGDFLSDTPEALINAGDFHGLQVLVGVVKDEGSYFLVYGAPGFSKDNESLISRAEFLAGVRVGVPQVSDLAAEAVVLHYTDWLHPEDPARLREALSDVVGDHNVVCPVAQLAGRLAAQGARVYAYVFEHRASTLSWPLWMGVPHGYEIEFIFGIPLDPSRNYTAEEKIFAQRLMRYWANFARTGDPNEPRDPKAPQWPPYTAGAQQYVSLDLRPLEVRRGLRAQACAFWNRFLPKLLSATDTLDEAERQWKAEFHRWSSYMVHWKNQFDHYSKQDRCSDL

O=C1CCC(Cc2cc(O)cc(O)c2)O1 (centres unmarked) [5-(3,5-dihydroxyphenyl)-γ-valerolactone]
time until which the increased amount of free acetylcholine is maintained ([1]; after the administration): ≤ 100 min
inhibiting action of acetylcholine esterase (acetylcholine esterase): do not provide inhibiting action
nerve cell proliferating action [2]: significant nerve cell proliferating action
sulfate conjugate and glucuronic acid conjugate in the serum [3]: detected

O=C1CC[C@H](Cc2cc(O)c(O)c(O)c2)O1 [compound C, (R)-5-(3,4,5-trihydroxyphenyl)-γ-valerolactone, reference compound]
amount of extracellular acetylcholine in the cerebral cortex (ratio to basic released amount) [1]: not significant change
ameliorating the impairment of short-term working memory (Spontaneous Alternation) [4]: not confirmed at all

O=C1CC[C@H](Cc2ccc(O)c(O)c2)O1 [compound B, (R)-5-(3,4-dihydroxyphenyl)-γ-valerolactone, reference compound]
amount of extracellular acetylcholine in the cerebral cortex (ratio to basic released amount) [1]: not significant change
ameliorating the impairment of short-term working memory (Spontaneous Alternation) [4]: not confirmed at all

O=C1CCC(Cc2ccc(O)cc2)O1 (centres unmarked) [5-(4-monohydroxyphenyl)-γ-valerolactone]
cytotoxicity induced by β-oligomer [5]: reduces the cytotoxicity

O=C(O[C@@H]1Cc2c(O)cc(O)cc2O[C@@H]1c1cc(O)c(O)c(O)c1)c1cc(O)c(O)c(O)c1 [EGCg, epigallocatechingallate]
amount absorbed into the body after ingestion (bioavailability) [6]: extremely low
generation of amyloid β (amyloid β): inhibit the generation of amyloid β

— patent US20250120942A1, “BRAIN FUNCTION IMPROVING AGENT” (OSAKA UNIVERSITY, priority 2021, published 2025)
